Patent US7015228B2, “4-amino-2-(2-pyridyl)pyrimidines as microbicidal active substances” (Ciba Specialty Chemicals Corporation, priority 2001, dated 2006)
Converted amounts (≈) assume the structure as drawn.

How the values were obtained:
Assay type in all cases: cell-based
[1] = tested on: Escherichia coli NCTC 8196; experiment: Minimum inhibitory concentration (MIC) in microtitre plates; details: for Minimum inhibitory concentration (MIC) E. coli: Table 7, 48 hours at 37° C., MIC = ≦20% growth compared to control; for Minimum inhibitory concentration (MIC) E. coli NCTC 8196: Table 8, * = significant inhibition of growth, but not complete inhibition
Outline: (§1)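 Compounds in DMSO, 1:2 dilution series; bacteria at 1–5×10^6 CFU/ml diluted 1:100 in CASO broth. Incubation 48 h at 37° C, growth read as OD 620 nm. MIC is the lowest concentration giving ≤20% growth relative to control; duplicates.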

[2] = tested on: Staphylococcus hominis DMS 20328; experiment: as above; details: Table 7; 48 hours at 37° C.; MIC = ≦20% growth compared to control
Outline: as §1

[3] = tested on: Aspergillus niger ATCC 6275; experiment: Minimum inhibitory concentration (MIC), further microorganisms; details: Table 8; * = significant inhibition of growth, but not complete inhibition
Outline: (§2)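 Organisms at 1–5×10^6 CFU/ml were diluted 1:100 into CASO broth (bacteria, yeast) or Sabouraud 2% glucose broth (mould) over 1:2 DMSO dilution series of compound. Bacteria and yeast were incubated 48 h at 37 °C and mould 5 days at 28 °C. MIC is the lowest concentration giving ≤20% growth versus control by OD620, in duplicate.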

[4] = tested on: Candida albicans ATCC 10231; experiment: as above; details: Table 8; * = significant inhibition of growth, but not complete inhibition
Outline: as §2

[5] = tested on: Enterococcus hirae ATCC 10541; experiment: as above; details: Table 8; * = significant inhibition of growth, but not complete inhibition
Outline: as §2

[6] = tested on: Epidermophyton floccosum DSM 10709; experiment: as above; details: Table 8; * = significant inhibition of growth, but not complete inhibition
Outline: as §2

[7] = tested on: Klebsiella pneumonia ATCC 4352; experiment: as above; details: Table 8; * = significant inhibition of growth, but not complete inhibition
Outline: as §2

[8] = tested on: Micrococcus luteus ATCC 9341; experiment: as above; details: Table 8; * = significant inhibition of growth, but not complete inhibition
Outline: as §2

[9] = tested on: Pseudomonas aeruginosa CIP A-22; experiment: as above; details: Table 8
Outline: as §2

[10] = tested on: S. epidermidis ATCC 12228; experiment: as above; details: Table 8; * = significant inhibition of growth, but not complete inhibition
Outline: as §2

[11] = tested on: Salmonella choleraesuis ATCC 10708; experiment: as above; details: Table 8
Outline: as §2

[12] = tested on: Staphylococcus aureus ATCC 9144; experiment: as above; details: Table 8; * = significant inhibition of growth, but not complete inhibition
Outline: as §2

[13] = tested on: Trichophyton mentagrophytes ATCC 9533; experiment: as above; details: Table 8; * = significant inhibition of growth, but not complete inhibition
Outline: as §2

Structure (SMILES)	Minimum inhibitory concentration (MIC) E. coli [1] [µg/mL]	Minimum inhibitory concentration (MIC) E. coli NCTC 8196 [1] [µg/mL]	Minimum inhibitory concentration (MIC) S. hominis [2] [µg/mL]	Minimum inhibitory concentration (MIC) Aspergillus niger ATCC 6275 [3] [µg/mL]	Minimum inhibitory concentration (MIC) Candida albicans ATCC 10231 [4]	Minimum inhibitory concentration (MIC) Enterococcus hirae ATCC 10541 [5] [µg/mL]	Minimum inhibitory concentration (MIC) Epidermophyton floccosum DSM 10709 [6]	Minimum inhibitory concentration (MIC) Klebsiella pneumonia ATCC 4352 [7] [µg/mL]	Minimum inhibitory concentration (MIC) Micrococcus luteus ATCC 9341 [8]	Minimum inhibitory concentration (MIC) Pseudomonas aeruginosa CIP A-22 [9] [µg/mL]	Minimum inhibitory concentration (MIC) S. epidermidis ATCC 12228 [10]	Minimum inhibitory concentration (MIC) Salmonella choleraesuis ATCC 10708 [11] [µg/mL]	Minimum inhibitory concentration (MIC) Staphylococcus aureus ATCC 9144 [12]	Minimum inhibitory concentration (MIC) Trichophyton mentagrophytes ATCC 9533 [13]
CCCCCCCCCCCNc1cc(C(C)C)nc(-c2ccccn2)n1 [compound 98]	>120	120 (≈ 326 µM)	3.75 (≈ 10.2 µM)	>60	30 µg/mL (≈ 81.4 µM)	1.9 (≈ 5.16 µM)	15 µg/mL (≈ 40.7 µM)	120 (≈ 326 µM)	<0.5 µg/mL	>120	1.9 µg/mL (≈ 5.16 µM)	>120	1.9 µg/mL (≈ 5.16 µM)	>60 µg/mL
CCCCCCCCCCCCNc1cc(C(C)C)nc(-c2ccccn2)n1 [compound 48]	120 (≈ 314 µM)	>60	3.75 (≈ 9.8 µM)	>60	*15 μg/mL	<3.75	*60 μg/mL	>60	<3.75 µg/mL	>60	<3.75 µg/mL	>60	<3.75 µg/mL	*60 μg/mL
CCCCCCCCCCCCCCCNc1nc(-c2ccccn2)nc(C)c1CC [compound 90]	120 (≈ 283 µM)	>60	30 (≈ 70.6 µM)	>120	*60 μg/mL	30 (≈ 70.6 µM)	60 µg/mL (≈ 141 µM)	>60	15 µg/mL (≈ 35.3 µM)	>60	*30 μg/mL	>60	*30 μg/mL	>120 µg/mL
CCCCCCCCCCCCCCCNc1cc(C(C)C)nc(-c2ccccn2)n1 [compound 99]	>120	>60	15 (≈ 35.3 µM)	>60	>60 µg/mL	3.75 (≈ 8.83 µM)	*60 μg/mL	>60	1.0 µg/mL (≈ 2.35 µM)	>60	3.75 µg/mL (≈ 8.83 µM)	>60	7.5 µg/mL (≈ 17.7 µM)	>60 µg/mL
CCCCCCCCCCCCNc1cc(C(C)(C)C)nc(-c2ccccn2)n1 [compound 60]	120 (≈ 303 µM)	>60	3.75 (≈ 9.45 µM)	60 (≈ 151 µM)	>60 µg/mL	7.5 (≈ 18.9 µM)	>60 µg/mL	>60	<3.75 µg/mL	>60	*7.5 μg/mL	>60	15 µg/mL (≈ 37.8 µM)	>60 µg/mL
CCCCCCCCNc1cc(C)nc(-c2ccccn2)n1 [compound 21]	60 (≈ 201 µM)	120 (≈ 402 µM)	3.75 (≈ 12.6 µM)	>60	120 µg/mL (≈ 402 µM)	120 (≈ 402 µM)	>60 µg/mL	120 (≈ 402 µM)	120 µg/mL (≈ 402 µM)	>120	120 µg/mL (≈ 402 µM)	>120	120 µg/mL (≈ 402 µM)	>60 µg/mL
NCCCCCCCCCNc1cc(C(F)(F)F)nc(-c2ccccn2)n1 [compound 30]	120 (≈ 315 µM)	>60	120 (≈ 315 µM)	>60	>60 µg/mL	>60	>60 µg/mL	>60	60 µg/mL (≈ 157 µM)	>60	>60 µg/mL	>60	>60 µg/mL	>60 µg/mL
Cc1nc(-c2ccccn2)nc(NCCCCCCCCCN)c1C(C)C [compound 66]	30 (≈ 81.2 µM)	>60	3.75 (≈ 10.1 µM)	>60	>60 µg/mL	>60	>60 µg/mL	>60	*30 μg/mL	>60	60 µg/mL (≈ 162 µM)	>60	60 µg/mL (≈ 162 µM)	>60 µg/mL
